The results in this text go back to US20220298163A1, “BTK INHIBITORS WITH IMPROVED DUAL SELECTIVITY” (BEIGENE, LTD., priority 2017, published 2022).

Assay [1] deals with T1, Tec (Homo sapiens, UniProt P42680).
T1 sequence (P42680 1-631): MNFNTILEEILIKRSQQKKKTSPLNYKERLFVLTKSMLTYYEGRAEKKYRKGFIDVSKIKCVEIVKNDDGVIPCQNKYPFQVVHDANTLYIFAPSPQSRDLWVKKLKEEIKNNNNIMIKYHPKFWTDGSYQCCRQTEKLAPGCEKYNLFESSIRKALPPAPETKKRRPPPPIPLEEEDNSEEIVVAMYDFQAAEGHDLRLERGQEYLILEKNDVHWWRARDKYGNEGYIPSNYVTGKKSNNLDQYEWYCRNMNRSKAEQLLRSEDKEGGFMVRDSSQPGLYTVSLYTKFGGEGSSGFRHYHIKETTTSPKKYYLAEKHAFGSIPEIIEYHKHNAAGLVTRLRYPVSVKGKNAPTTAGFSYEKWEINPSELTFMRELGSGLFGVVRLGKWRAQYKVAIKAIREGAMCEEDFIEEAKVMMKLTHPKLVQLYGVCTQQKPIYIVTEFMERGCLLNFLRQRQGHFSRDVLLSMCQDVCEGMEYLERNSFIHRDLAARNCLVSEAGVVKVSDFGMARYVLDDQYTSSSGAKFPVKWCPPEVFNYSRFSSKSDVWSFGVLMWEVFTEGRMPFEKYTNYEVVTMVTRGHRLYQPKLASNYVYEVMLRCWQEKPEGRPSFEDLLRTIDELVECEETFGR
Briefly: Biochemical kinase selectivity: IC50 determination of Tec. The settings on record: for IC50: TR-FRET, 280 μM ATP; for Fold of Tec/Btk: ratio of IC50 values.

In assay [2] the target is EGFR (Homo sapiens, UniProt P00533). In words: Biochemical kinase selectivity: IC50 determination of EGFR. Particulars: for IC50: TR-FRET, 20 μM ATP; for Fold of EGFR/Btk: ratio of IC50 values.
Sequence of EGFR (P00533 25-1210): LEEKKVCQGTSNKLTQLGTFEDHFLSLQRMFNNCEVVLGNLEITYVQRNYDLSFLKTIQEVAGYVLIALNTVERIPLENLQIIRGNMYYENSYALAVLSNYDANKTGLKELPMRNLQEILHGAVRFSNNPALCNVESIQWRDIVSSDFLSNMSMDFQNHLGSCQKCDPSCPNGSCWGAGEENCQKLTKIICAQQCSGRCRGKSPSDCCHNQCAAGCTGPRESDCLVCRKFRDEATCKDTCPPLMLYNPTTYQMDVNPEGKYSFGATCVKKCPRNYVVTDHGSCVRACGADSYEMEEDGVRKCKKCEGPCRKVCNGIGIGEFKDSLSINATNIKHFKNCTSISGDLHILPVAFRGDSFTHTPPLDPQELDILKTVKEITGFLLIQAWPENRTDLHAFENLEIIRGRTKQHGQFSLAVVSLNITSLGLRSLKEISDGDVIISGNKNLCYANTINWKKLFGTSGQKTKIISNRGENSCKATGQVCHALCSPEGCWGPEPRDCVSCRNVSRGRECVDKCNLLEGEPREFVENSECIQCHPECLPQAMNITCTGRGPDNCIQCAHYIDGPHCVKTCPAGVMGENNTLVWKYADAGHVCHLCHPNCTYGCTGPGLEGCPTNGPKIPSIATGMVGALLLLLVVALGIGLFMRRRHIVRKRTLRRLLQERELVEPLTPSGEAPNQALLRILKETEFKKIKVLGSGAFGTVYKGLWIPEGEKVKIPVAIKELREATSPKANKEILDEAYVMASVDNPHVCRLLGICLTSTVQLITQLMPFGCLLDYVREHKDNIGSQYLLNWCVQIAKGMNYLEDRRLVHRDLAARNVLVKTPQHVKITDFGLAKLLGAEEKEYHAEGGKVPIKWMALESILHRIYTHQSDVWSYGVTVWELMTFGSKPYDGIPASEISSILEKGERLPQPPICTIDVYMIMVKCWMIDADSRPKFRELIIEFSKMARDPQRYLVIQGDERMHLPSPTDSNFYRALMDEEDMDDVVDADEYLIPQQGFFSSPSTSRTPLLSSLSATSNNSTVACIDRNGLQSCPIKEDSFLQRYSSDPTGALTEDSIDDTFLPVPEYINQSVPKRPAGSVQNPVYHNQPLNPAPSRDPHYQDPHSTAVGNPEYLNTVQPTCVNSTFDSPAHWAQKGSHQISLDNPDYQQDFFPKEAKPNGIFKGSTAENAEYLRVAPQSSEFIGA
Assay [3] deals with T2, Btk kinase (aa2-659, Carna Biosciences) (Homo sapiens, UniProt Q06187).
T2 construct: purchased Carna Biosciences
T2 sequence (Q06187 2-659): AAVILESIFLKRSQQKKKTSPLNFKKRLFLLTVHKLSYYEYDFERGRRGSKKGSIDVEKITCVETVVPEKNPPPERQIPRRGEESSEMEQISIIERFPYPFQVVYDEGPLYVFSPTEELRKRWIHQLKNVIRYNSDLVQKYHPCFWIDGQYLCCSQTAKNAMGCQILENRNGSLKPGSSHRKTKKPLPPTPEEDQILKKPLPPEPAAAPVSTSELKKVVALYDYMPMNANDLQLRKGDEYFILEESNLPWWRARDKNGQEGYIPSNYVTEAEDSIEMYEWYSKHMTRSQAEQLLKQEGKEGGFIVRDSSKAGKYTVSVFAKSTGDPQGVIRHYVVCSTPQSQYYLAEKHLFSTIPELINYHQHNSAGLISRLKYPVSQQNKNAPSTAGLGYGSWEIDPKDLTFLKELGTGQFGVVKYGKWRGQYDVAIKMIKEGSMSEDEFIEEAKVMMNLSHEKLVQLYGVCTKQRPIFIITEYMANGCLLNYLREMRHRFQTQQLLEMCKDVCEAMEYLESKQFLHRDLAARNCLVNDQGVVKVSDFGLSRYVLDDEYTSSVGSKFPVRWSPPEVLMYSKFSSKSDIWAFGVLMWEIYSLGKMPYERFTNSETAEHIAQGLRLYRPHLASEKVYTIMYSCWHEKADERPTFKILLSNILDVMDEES
In words: Btk kinase enzymatic assay (TR-FRET). It counts as biochemical. Particulars: for IC50: TR-FRET, 30 μM ATP, compound incubated with kinase 60 minutes. On the technique in general: TR-FRET usually uses a lanthanide donor and a delayed reading to cut background.

With `C=CC(=O)Nc1ccccc1C1CCNc2c(C(N)=O)c(-c3cc(F)c(F)c(Cl)c3)nn21` (stereo not drawn) [Example 158, reference compound], in assay [1], the IC50 (commonly the concentration that inhibits the measured activity by half) is 56 nM and the “Fold of Tec/Btk” value is recorded as 19 fold. In addition, in assay [2], the IC50 came to 0.49 nM and the “Fold of EGFR/Btk” value came to 0.2 fold.
In the case of `C=CC(=O)N1CCC(C2CCNc3c(C(N)=O)c(-c4ccc(C)c(OC)c4)nn32)CC1` (stereo not drawn) [Example 174, reference compound], in assay [1], the “selectivity of Btk over Tec (in words)” value is reported as “almost no selectivity against Tec”, it took 64 nM to reach half-maximal inhibition (IC50) and the “Fold of Tec/Btk” value came out at 13 fold. The “affinity / inhibitory activity for Btk (in words)” value in assay [3] is reported as “low affinity for Btk”. Also, in assay [2], the IC50 came to 281 nM and the “Fold of EGFR/Btk” value is given as 58.5 fold.
In the case of `C=CC(=O)N1CCC(C2CCNc3c(C(N)=O)c(-c4cc(Cl)c(OC)c(Cl)c4)nn32)CC1` (stereo not drawn) [Example A15, 7-(1-acryloylpiperidin-4-yl)-2-(3,5-dichloro-4-methoxyphenyl)-4,5,6,7-tetrahydropyrazolo[1,5-a]pyrimidine-3-carboxamide], in assay [1], the midpoint of inhibition, the IC50, lay at 1000 nM and the “Fold of Tec/Btk” value was 50 fold. Further, in assay [3], the “affinity / inhibitory activity for Btk (in words)” value is recorded as “poor affinity for Btk” and the IC50 was found to be 20 nM.
Consider `C=CC(=O)N1CCC(C2CCNc3c(C(N)=O)c(-c4cc(Br)c(C)c(Br)c4)nn32)CC1` (stereo not drawn) [Example A16, 7-(1-acryloylpiperidin-4-yl)-2-(3,5-dibromo-4-methylphenyl)-4,5,6,7-tetrahydropyrazolo[1,5-a]pyrimidine-3-carboxamide], for which the IC50 worked out at 556 nM in assay [1], 7.1 nM in assay [3] and 2370 nM in assay [2]. For the same compound, the “Fold of Tec/Btk” value in assay [1] is 78 fold. For the same compound, in assay [2], the “Fold of EGFR/Btk” value was determined as 333 fold.
In the case of `C=CC(=O)N1CCC(C2CCNc3c(C(N)=O)c(-c4cc(OC)c(-c5ccco5)c(OC)c4)nn32)CC1` (stereo not drawn) [Example A19, 7-(1-acryloylpiperidin-4-yl)-2-(4-(furan-2-yl)-3,5-dimethoxyphenyl)-4,5,6,7-tetrahydropyrazolo[1,5-a]pyrimidine-3-carboxamide], the IC50 in assay [1] was 455 nM; in assay [3], 7.2 nM; in assay [2] it was above 10000 nM. The “Fold of Tec/Btk” value in assay [1] turned out to be 63.2 fold.
Regarding `C=CC(=O)N1CCC(C2CCNc3c(C(N)=O)c(-c4cc(OC)c(-c5cc[nH]n5)c(OC)c4)nn32)CC1` (stereo not drawn) [Example A27, 7-(1-acryloylpiperidin-4-yl)-2-(3,5-dimethoxy-4-(1H-pyrazol-3-yl)phenyl)-4,5,6,7-tetrahydropyrazolo[1,5-a]pyrimidine-3-carboxamide], the IC50 was above 1000 nM in assay [1] and 18 nM in assay [3].
Regarding `C=CC(=O)N1CCC(C2CCNc3c(C(N)=O)c(-c4cc(OC)c(-c5ccsc5)c(OC)c4)nn32)CC1` (stereo not drawn) [Example A28, 7-(1-acryloylpiperidin-4-yl)-2-(3,5-dimethoxy-4-(thiophen-3-yl)phenyl)-4,5,6,7-tetrahydropyrazolo[1,5-a]pyrimidine-3-carboxamide], in assay [1], the 50% inhibitory concentration (IC50) turned out to be 369 nM and the “Fold of Tec/Btk” value is listed as 23 fold. Also, the IC50 in assay [3] turned out to be 16 nM.
As for `C=CC(=O)N1CCC(C2CCNc3c(C(N)=O)c(-c4cc(C)c(C5CC5)c(C)c4)nn32)CC1` (stereo not drawn) [Example A29, 7-(1-acryloylpiperidin-4-yl)-2-(4-cyclopropyl-3,5-dimethylphenyl)-4,5,6,7-tetrahydropyrazolo[1,5-a]pyrimidine-3-carboxamide], the IC50 in assay [1] is above 1000 nM; in assay [3], 16 nM.
Turning to `C=CC(=O)N1CCC(C2CCNc3c(C(N)=O)c(-c4cc(C)cc(C)c4)nn32)CC1` (stereo not drawn) [Example A30, 7-(1-acryloylpiperidin-4-yl)-2-(3,5-dimethylphenyl)-4,5,6,7-tetrahydropyrazolo[1,5-a]pyrimidine-3-carboxamide], the IC50 in assay [1] is above 1000 nM; in assay [3] it was 53 nM.
On to `C=CC(=O)N1CCC(C2CCNc3c(C(N)=O)c(-c4cc(OC)c(C5CCCCC5)c(OC)c4)nn32)CC1` (stereo not drawn) [Example A39, 7-(1-acryloylpiperidin-4-yl)-2-(4-cyclohexyl-3,5-dimethoxyphenyl)-4,5,6,7-tetrahydropyrazolo[1,5-a]pyrimidine-3-carboxamide], for which, in assay [1], the IC50 came out at 102 nM and the “Fold of Tec/Btk” value turned out to be 15 fold. Also, it took 6.8 nM to reach half-maximal inhibition in assay [3] (IC50). Also, in assay [2], the IC50 was determined as 6080 nM and the “Fold of EGFR/Btk” value is given as 894 fold.
Regarding `C=CC(=O)N1CCC(C2CCNc3c(C(N)=O)c(-c4cc(OC)c(C5=CCCCC5)c(OC)c4)nn32)CC1` (stereo not drawn) [Example A40, 7-(1-acryloylpiperidin-4-yl)-2-(2,6-dimethoxy-2′,3′,4′,5′-tetrahydro-[1,1′-biphenyl]-4-yl)-4,5,6,7-tetrahydropyrazolo[1,5-a]pyrimidine-3-carboxamide], the IC50 amounted to 253 nM in assay [1] and 11 nM in assay [3]. In addition, the “Fold of Tec/Btk” value in assay [1] is 23 fold.
For the compound `C=CC(=O)N1CCC(C2CCNc3c(C(N)=O)c(-c4cc(OC)c(CCc5ccccc5)c(OC)c4)nn32)CC1` (stereo not drawn) [Example A42, 7-(1-acryloylpiperidin-4-yl)-2-(3,5-dimethoxy-4-phenethylphenyl)-4,5,6,7-tetrahydropyrazolo[1,5-a]pyrimidine-3-carboxamide], in assay [1], the IC50 amounted to 53 nM and the “Fold of Tec/Btk” value is reported as 18 fold. In assay [3], this compound gave an IC50 of 3 nM. Besides, in assay [2], the IC50 stood at 2000 nM and the “Fold of EGFR/Btk” value came out at 668 fold.
For the compound `C=CC(=O)N1CCC(C2CCNc3c(C(N)=O)c(-c4cc(OC)c(C(=C)c5ccccc5)c(OC)c4)nn32)CC1` (stereo not drawn) [Example A43, 7-(1-acryloylpiperidin-4-yl)-2-(3,5-dimethoxy-4-(1-phenylvinyl)phenyl)-4,5,6,7-tetrahydropyrazolo[1,5-a]pyrimidine-3-carboxamide], the IC50 amounted to 39 nM in assay [1], 6.8 nM in assay [3] and 6180 nM in assay [2]. Besides, the “Fold of Tec/Btk” value in assay [1] came out at 5.7 fold. For the same compound, the “Fold of EGFR/Btk” value in assay [2] is 909 fold.
Turning to `C=CC(=O)N1CC(C2CCNc3c(C(N)=O)c(-c4cc(Cl)c(C)c(Cl)c4)nn32)C1` (stereo not drawn) [Example B1, 7-(1-acryloylazetidin-3-yl)-2-(3,5-dichloro-4-methylphenyl)-4,5,6,7-tetrahydropyrazolo[1,5-a]pyrimidine-3-carboxamide], inhibition in assay [3] was half-maximal at 13 nM (IC50).
Turning to `C=CC(=O)N1CC2CNc3c(C(N)=O)c(-c4cc(OC)c(OC)c(OC)c4)nn3C2C1` (stereo not drawn) [Example C2, 7-acryloyl-2-(3,4,5-trimethoxyphenyl)-5,5a,6,7,8,8a-hexahydro-4H-pyrazolo[1,5-a]pyrrolo[3,4-e]pyrimidine-3-carboxamide], in assay [3], 34 nM corresponded to half-maximal inhibition (IC50).
The compound `C=CC(=O)N1CCC2C(CNc3c(C(N)=O)c(-c4cc(OC)c(C)c(OC)c4)nn32)C1` (stereo not drawn) [Example D1, 7-acryloyl-2-(3,5-dimethoxy-4-methylphenyl)-4,5,5a,6,7,8,9,9a-octahydropyrazolo[1,5-a]pyrido[3,4-e]pyrimidine-3-carboxamide] yielded an IC50 in assay [3] of 10 nM.
As for `C=CC(=O)N1CCC2Nc3c(C(N)=O)c(-c4cc(OC)c(C)c(OC)c4)nn3CC2C1` (stereo not drawn) [Example D2, 7-acryloyl-2-(3,5-dimethoxy-4-methylphenyl)-4,4a,5,6,7,8,8a,9-octahydropyrazolo[1,5-a]pyrido[4,3-d]pyrimidine-3-carboxamide], the IC50 in assay [1] is above 1000 nM; in assay [3] it was 63 nM.
In assay [3], `C=CC(=O)NCC1CCNc2c(C(N)=O)c(-c3cc(OC)c(C)c(OC)c3)nn21` (stereo not drawn) [Example E1, 7-(acrylamidomethyl)-2-(3,5-dimethoxy-4-methylphenyl)-4,5,6,7-tetrahydropyrazolo[1,5-a]pyrimidine-3-carboxamide] returned an IC50 of 33 nM.
With `C=CC(=O)N1CCC2(CC1)CC(C1CCNc3c(C(N)=O)c(-c4cc(OC)c(C)c(OC)c4)nn31)C2` (stereo not drawn) [Example F1, 7-(7-acryloyl-7-azaspiro[3.5]nonan-2-yl)-2-(3,5-dimethoxy-4-methylphenyl)-4,5,6,7-tetrahydropyrazolo[1,5-a]pyrimidine-3-carboxamide], the IC50 in assay [3] was above 100 nM.
On the same count and under the same terms, with `C=CC(=O)N1CC2CCC(C1)C2C1CCNc2c(C(N)=O)c(-c3cc(OC)c(C)c(OC)c3)nn21` (stereo not drawn) [Example G1, 7-(3-acryloyl-3-azabicyclo[3.2.1]octan-8-yl)-2-(3,5-dimethoxy-4-methylphenyl)-4,5,6,7-tetrahydropyrazolo[1,5-a]pyrimidine-3-carboxamide] the figure was 12 nM.
In assay [3], `C=CC(=O)N1CC2(CC(C3CCNc4c(C(N)=O)c(-c5cc(OC)c(C)c(OC)c5)nn43)C2)C1` (stereo not drawn) [Example H1, 7-(2-acryloyl-2-azaspiro[3.3]heptan-6-yl)-2-(3,5-dimethoxy-4-methylphenyl)-4,5,6,7-tetrahydropyrazolo[1,5-a]pyrimidine-3-carboxamide] yielded an IC50 of 35 nM.
`C=CC(=O)N1CCC(C2CCNc3c(C(N)=O)c(-c4ccc(Cl)cc4)nn32)CC1` (stereo not drawn) [reference compound]: the IC50 in assay [3] turned out to be 22 nM.
